Measured values taken from patent US20070107072A1, “Transgenic amphibian models for lymphatic vessel development” (priority 2003, published 2007).

System: Prox-1
Experiment: Prox-1 antisense morpholino knockdown in Xenopus embryos, whole-mount in situ hybridisation for Prox1 and morphometry
Assay type: in vivo, Xenopus laevis
Details: for reduction of total Prox-1 positive area: as compared to control tadpoles
Method: In a second example 25 ng of Prox-1 antisense morpholino oligonucleotides (Prox-1 MOs) was microinjected in a 1-cell stage Xenopus, in order to investigate the influence on the development of the lymphatic system. Prox1 is known to be expressed exclusively in lymphatic but not in blood vascular endothelial cells. Xenopus laevis embryos were obtained by artificial fertilization using standard techniques and sexually mature adult frogs purchased from Nasco Biology (Fort Atkinson, Wis.). The Prox-1 MOs, 5′-[…]-3′, were purchased from Gene Tools (Corvallis, Oreg.) and designed around the ATG codon. As ATG-specific morpholinos lower translation—but not transcription—of the target gene, we used whole embryo mount in situ hybridisation for Prox1 to visualize the defects in lymphatic vascular development. The 5′ nucleotide sequence of Prox-1 was obtained using 5′ RACE using primers based on published Xenopus laevis cDNA (GenBank # AB008773). To visualise Prox-1 expression pattern, embryos were collected at different developmental stages (according to Nieuwkoop and Faber), fixed and submitted to whole-mount in situ hybridisation according Harland (Harland, 1991), with the exception that BM purple was used as a substrate. The Prox-1 digoxigenin-labeled riboprobe used was constructed from a 950 bp cDNA fragment (GenBank # AB008773), which was cloned into pGEMTeasy and linearised with AatII to get SP6 antisense probe. After in situ hybridisation the embryos where bleached, cleared and stored in glycerol until analysed. Analysis was performed using a Zeiss Axioplan 2 imaging microscope equipped with a Axiocam HrC camera and the KS300 morphometry software. The total ISH-region was divided into 3 different regions where the first region represents the ventral side the tail, a second region where the dorsal migration of prox-1 positive cells takes place and finally a third region which represents the dorsal side. For all regions, length of positive staining was measured, followed by segmentation of the ISH-area by hue, lightness and saturation for defining the true stained area. A value of migration is given by the cell that traveled furthest across the tail. In non-morpholino treated Xenopus we observed that the normal lymphatic system starts developing at the jugular region of the tadpole around developmental stage 29/30. Apart from expression in non-lymphatic tissues such as the pronephros and the eye, the Prox-1 expression at this stage seems to be restricted to the jugular region. At the following stage (31-32), the staining in the jugular region is expanded to what will become the future lymphsacs. The region of the future anterior lymph hearts as well as the ventral caudal region show intense Prox-1 positive signal too. By stage 33/34 the prox positive cells in the caudal region start the formation of the ventral caudal lymphatic vessel. Prox-1 positive lymphatic cells are migrating from the ventral to the dorsal region and this event is culminating at stage 35/36 where the highest amount of migrating cells can be accounted for. The formation of what eventually will become the dorsal lymphatic vessel is also initiated at this stage. By stage 37-38 a majority of the prox positive cells have reached the dorsal side where they are contributing to the formation of dorsal caudal lymphatic vessels. […] In the tail of the Prox-1 morphants dorsal migration of Pro-1 positive cells is dearly impaired. […]

5′-CAGGCATCACTGGACTGTTATTGTG-3′ (all phosphorodiamidate morpholino (PMO)) [Prox-1 MOs, Prox-1 antisense morpholino oligonucleotides purchased from Gene Tools, designed around the ATG codon]
formation of the lymph hearts and the rostral lymphatic structures (Prox1 knockdown): impaired | cardiogenesis (looping, septation and beating of the heart, and blood circulation) (Prox1 morphants): all normal | development of blood vessels (number of Msr-positive intersomitic vessels in anterior trunk, Msr-positive area in posterior trunk) (Prox1 morphants): not affected | Prox-1 staining of the anterior region (Prox-1 morphants): clearly reduced | edema in the head and anterior trunk (beyond stage 45): manifest edema in the head and anterior trunk developed in most Prox1 knockdown embryos | reduction of total Prox-1 positive area (stage 33/34): about 60% | reduction of dorsal migration of Prox-1 positive cells in the tail (stage 35/36, 25 ng microinjected in 1-cell stage, vs control tadpoles): about 55% | reduction of total Prox-1 positive area (stage 35/36): ~50% | dorsal migration of Prox-1 positive cells in the tail (stage 37/38, 25 ng microinjected in 1-cell stage): significantly reduced | reduction of total Prox-1 positive area (stage 37/38): ~35%
